Assay results published in publication PMC3914206.

How the values were obtained:
panel of 442 kinases [1] = biological target: T1, panel of 442 kinases (Homo sapiens, UniProt Q13554); format: binding; design: KINOMEscan: ABL1(F317L)-phosphorylated / KINOMEscan: ABL1(H396P)-nonphosphorylated / KINOMEscan: ABL1(H396P)-phosphorylated / KINOMEscan: ABL1(M351T)-phosphorylated / KINOMEscan: ABL1(T315I)-phosphorylated / KINOMEscan: ABL1-nonphosphorylated / KINOMEscan: ABL1-phosphorylated / KINOMEscan: ACVR2A / KINOMEscan: ACVR2B / KINOMEscan: ADCK3 / KINOMEscan: ADCK4 / KINOMEscan: AKT1 / KINOMEscan: AKT3 / KINOMEscan: ALK / KINOMEscan: ARK5 / KINOMEscan: AURKA / KINOMEscan: AURKC / KINOMEscan: BIKE / KINOMEscan: BMPR1A / KINOMEscan: BMPR1B / KINOMEscan: BMX / KINOMEscan: BRK / KINOMEscan: BRSK1 / KINOMEscan: BRSK2 / KINOMEscan: CAMK1 / KINOMEscan: CAMK1D / KINOMEscan: CAMK1G / KINOMEscan: CAMK2A / KINOMEscan: CAMK2B / KINOMEscan: AAK1 / KINOMEscan: CAMK2D / KINOMEscan: CAMK2G / KINOMEscan: ABL1(F317I)-nonphosphorylated / KINOMEscan: ABL1(F317I)-phosphorylated / KINOMEscan: ABL1(F317L)-nonphosphorylated: unit: % Ctrl; details: Compound Concentration 10 µM
T1 construct: purchased KINOMEscan
T1 sequence (Q13554 whole entry): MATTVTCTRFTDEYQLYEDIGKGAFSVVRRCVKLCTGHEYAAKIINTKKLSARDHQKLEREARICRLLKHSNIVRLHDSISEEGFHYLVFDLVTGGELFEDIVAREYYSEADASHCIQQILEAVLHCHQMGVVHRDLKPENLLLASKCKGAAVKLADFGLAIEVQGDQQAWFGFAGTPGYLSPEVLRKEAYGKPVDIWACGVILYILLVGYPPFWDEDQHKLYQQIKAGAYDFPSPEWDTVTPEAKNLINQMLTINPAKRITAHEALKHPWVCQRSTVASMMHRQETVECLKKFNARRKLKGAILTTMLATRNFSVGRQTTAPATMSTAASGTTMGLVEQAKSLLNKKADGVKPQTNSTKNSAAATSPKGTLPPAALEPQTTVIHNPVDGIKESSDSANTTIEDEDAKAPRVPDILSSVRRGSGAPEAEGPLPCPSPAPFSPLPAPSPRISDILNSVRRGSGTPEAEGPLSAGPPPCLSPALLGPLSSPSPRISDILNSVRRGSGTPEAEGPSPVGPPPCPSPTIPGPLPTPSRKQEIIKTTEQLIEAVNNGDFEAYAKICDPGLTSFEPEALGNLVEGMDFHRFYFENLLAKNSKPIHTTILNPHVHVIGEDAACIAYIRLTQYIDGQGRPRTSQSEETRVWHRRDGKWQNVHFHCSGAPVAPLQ
From the text: (§1) We assessed the selectivity of members of this scaffold using the KINOMEscan methodology across a near comprehensive panel of 442 kinases [[18,27]].

panel of 442 kinases [2] = biological target: T2, panel of 442 kinases (Homo sapiens, UniProt P36507); format: binding; design: KINOMEscan: ABL1(F317L)-phosphorylated / KINOMEscan: ABL1(H396P)-nonphosphorylated / KINOMEscan: ABL1(H396P)-phosphorylated / KINOMEscan: ABL1(M351T)-phosphorylated / KINOMEscan: ABL1(T315I)-phosphorylated / KINOMEscan: ABL1-nonphosphorylated / KINOMEscan: ABL1-phosphorylated / KINOMEscan: ACVR2A / KINOMEscan: ACVR2B / KINOMEscan: ADCK3 / KINOMEscan: ADCK4 / KINOMEscan: AKT1 / KINOMEscan: AKT3 / KINOMEscan: ALK / KINOMEscan: ARK5 / KINOMEscan: AURKA / KINOMEscan: AURKC / KINOMEscan: BIKE / KINOMEscan: BMPR1A / KINOMEscan: BMPR1B / KINOMEscan: BMX / KINOMEscan: BRK / KINOMEscan: BRSK1 / KINOMEscan: BRSK2 / KINOMEscan: CAMK1 / KINOMEscan: CAMK1D / KINOMEscan: CAMK1G / KINOMEscan: CAMK2A / KINOMEscan: CAMK2B / KINOMEscan: AAK1 / KINOMEscan: CAMK2D / KINOMEscan: CAMK2G / KINOMEscan: ABL1(F317I)-nonphosphorylated / KINOMEscan: ABL1(F317I)-phosphorylated / KINOMEscan: ABL1(F317L)-nonphosphorylated: unit: % Ctrl; details: Compound Concentration 10 µM
T2 construct: purchased KINOMEscan
T2 sequence (P36507 whole entry): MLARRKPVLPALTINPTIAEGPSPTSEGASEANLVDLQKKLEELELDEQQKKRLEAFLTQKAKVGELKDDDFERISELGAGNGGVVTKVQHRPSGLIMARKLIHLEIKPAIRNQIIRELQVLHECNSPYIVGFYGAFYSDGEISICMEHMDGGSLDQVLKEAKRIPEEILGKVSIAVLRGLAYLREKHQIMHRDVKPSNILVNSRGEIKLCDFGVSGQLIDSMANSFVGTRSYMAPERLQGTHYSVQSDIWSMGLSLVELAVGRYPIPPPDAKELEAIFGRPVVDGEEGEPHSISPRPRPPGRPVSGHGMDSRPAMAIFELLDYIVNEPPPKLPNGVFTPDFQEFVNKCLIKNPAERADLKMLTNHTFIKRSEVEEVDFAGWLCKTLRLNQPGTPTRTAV
From the text: as §1

Structure (SMILES)	KINOMEscan: CAMK2B (panel of 442 kinases [1])	KINOMEscan: MEK2 (panel of 442 kinases [2])
COc1cc(C(=O)N2CCC(N3CCN(C)CC3)CC2)ccc1Nc1ncc2c(n1)N(C)c1ccccc1C(=O)N2C [15 (LRRK2-IN-1)]	62	99
COc1cc(C(=O)N2CCC(N3CCN(C)CC3)CC2)ccc1Nc1ncc2c(n1)N1CCc3cccc(c31)C(=O)N2C [Compound 24]	62	
COc1cc(C(=O)N2CCC(N3CCN(C)CC3)CC2)ccc1Nc1ncc2c(n1)N(C1CCCC1)c1ccccc1C(=O)N2C [Compound 25, 11-cyclopentyl-2-((2-methoxy-4-(4-(4-methylpiperazin-1-yl)piperidine-1-carbonyl)phenyl)amino)-5-methyl-5H-benzo[e]pyrimido[5,4-b][1,4]diazepin-6(11H)-one]	80	66
CCOc1cc(C(=O)N2CCC(N3CCN(C)CC3)CC2)ccc1Nc1ncc2c(n1)N(C1CCCC1)c1ccccc1C(=O)N2C [Compound 26]	78	89
